These results are taken from patent US11339165B2, “Pyrazolopyrimidines having activity against the respiratory syncytial virus (RSV)” (priority 2017, dated 2022).

Series [1] in a line: in vitro. To be noted: human, TOX HELA CC50 (μM).
Series [2] concerns rgRSV224 virus. In words: Antiviral activity: rgRSV224 (GFP) replication in HeLa cells. In kind it is cell-based, respiratory syncytial virus (RSV). The settings on record: human respiratory syncytial virus, HeLa, 72 h, read-out: RSV HELA EC50 (μM), rgRSV224 virus (MOI=1), HeLa cells, GFP expression three days post-virus exposure.

SMILES strings stand for the structures.

`CC(=O)N[C@H]1CCN(c2ccc(-c3cc4nc(C(=O)N5CCc6ccccc6[C@H]5C)cc(C5CC5)n4n3)c(F)c2)C1` [Compound 8, N-[(3S)-1-(4-{7-Cyclopropyl-5-[(1R)-1-methyl-1,2,3,4-tetrahydroisoquinoline-2-carbonyl]pyrazolo[1,5-a]pyrimidin-2-yl}-3-fluorophenyl)pyrrolidin-3-yl]acetamide]: in series [1], the CC50 (commonly the concentration at which the toxic effect on the cells reaches its halfway point) at 3 days came out at 51.5 µM. The 50% effective concentration (EC50) – broadly, the concentration that produces a half-maximal response – in series [2] was 0.041 µM.
Consider `COC(=O)N[C@@H]1CCN(c2ccc(-c3cc4nc(C(=O)N5CCc6ccccc6[C@H]5C)cc(C5CC5)n4n3)c(F)c2)C1` [Compound 9, Methyl N-[(3R)-1-[4-{7-cyclopropyl-5-[(1R)-1-methyl-1,2,3,4-tetrahydroisoquinoline-2-carbonyl]pyrazolo[1,5-a]pyrimidin-2-yl}-3-fluorophenyl)pyrrolidin-3-yl]carbamate], for which, in series [1], the CC50 at 3 days was over 100 µM. Further, the EC50 in series [2] came to 0.108 µM.
The compound `COC(=O)N[C@H]1CCN(c2ccc(-c3cc4nc(C(=O)N5CCc6ccccc6[C@H]5C)cc(C5CC5)n4n3)c(F)c2)C1` [Compound 10, Methyl N-[(3S)-1-[4-{7-cyclopropyl-5-[(1R)-1-methyl-1,2,3,4-tetrahydroisoquinoline-2-carbonyl]pyrazolo[1,5-a]pyrimidin-2-yl}-3-fluorophenyl)pyrrolidin-3-yl]carbamate] yielded a half-maximal cytotoxic concentration (CC50) at 3 days in series [1] of over 100 µM. In addition, in series [2], the EC50 turned out to be 0.07 µM.
The like results for `C[C@@H]1c2ccccc2CCN1C(=O)c1cc(C2CC2)n2nc(-c3ccc(N4CC[C@H](NS(C)(=O)=O)C4)cc3F)cc2n1` [Compound 12, N-[(3S)-1-(4-{7-Cyclopropyl-5-[(1R)-1-methyl-1,2,3,4-tetrahydroisoquinoline-2-carbonyl]pyrazolo[1,5-a]pyrimidin-2-yl}-3-fluorophenyl)pyrrolidin-3-yl]methane-sulfonamide] were, in that order, over 100 µM and 0.041 µM.
The matching figures for `C[C@@H]1c2ccccc2CCN1C(=O)c1cc(C2CC2)n2nc(-c3ccc(N4CC[C@@H](O)C4)cc3F)cc2n1` [Compound 13, (3R)-1-(4-{7-Cyclopropyl-5-[(1R)-1-methyl-1,2,3,4-tetrahydroisoquinoline-2-carbonyl]pyrazolo[1,5-a]pyrimidin-2-yl}-3-fluorophenyl)pyrrolidin-3-ol]: 80.5 µM and 0.058 µM.
In turn, `C[C@@H]1c2ccccc2CCN1C(=O)c1cc(C2CC2)n2nc(-c3ccc(N4CC[C@H](O)C4)cc3F)cc2n1` [Compound 14, (3S)-1-(4-{7-Cyclopropyl-5-[(1R)-1-methyl-1,2,3,4-tetrahydroisoquinoline-2-carbonyl]-pyrazolo[1,5-a]pyrimidin-2-yl}-3-fluorophenyl)pyrrolidin-3-ol] had a CC50 at 3 days in series [1] of 81.2 µM. For the same compound, the EC50 in series [2] came to 0.039 µM.
In series [1], `CNC(=O)O[C@@H]1CCN(c2ccc(-c3cc4nc(C(=O)N5CCc6ccccc6[C@H]5C)cc(C5CC5)n4n3)c(F)c2)C1` [Compound 15, (3R)-1-(4-{7-Cyclopropyl-5-[(1R)-1-methyl-1,2,3,4-tetrahydroisoquinoline-2-carbonyl]-pyrazolo[1,5-a]pyrimidin-2-yl}-3-fluorophenyl)pyrrolidin-3-yl N-methylcarbamate] gave a CC50 at 3 days of over 100 µM. Also, in series [2], the EC50 amounted to 0.1 µM.
The matching figures for `CNC(=O)O[C@H]1CCN(c2ccc(-c3cc4nc(C(=O)N5CCc6ccccc6[C@H]5C)cc(C5CC5)n4n3)c(F)c2)C1` [Compound 16, (3S)-1-(4-{7-Cyclopropyl-5-[(1R)-1-methyl-1,2,3,4-tetrahydroisoquinoline-2-carbonyl]-pyrazolo[1,5-a]pyrimidin-2-yl}-3-fluorophenyl)pyrrolidin-3-yl N-methylcarbamate]: over 100 µM and 0.11 µM.
`C[C@@H]1c2ccccc2CCN1C(=O)c1cc(C2CC2)n2nc(-c3ccc(N4CC[C@H](S(C)(=O)=O)C4)cc3F)cc2n1` [Compound 18, (1R)-2-(7-Cyclopropyl-2-{2-fluoro-4-[(3S)-3-methanesulfonylpyrrolidin-1-yl]phenyl}-pyrazolo[1,5-a]pyrimidine-5-carbonyl)-1-methyl-1,2,3,4-tetrahydroisoquinoline]: in series [1], the CC50 at 3 days was over 100 µM. For the same compound, the EC50 in series [2] turned out to be 0.044 µM.
In series [1], `CC(=O)NS(=O)(=O)C1CCN(c2ccc(-c3cc4nc(C(=O)N5CCc6ccccc6[C@H]5C)cc(C5CC5)n4n3)c(F)c2)C1` (stereo partly drawn) [Compound 20, N-{[1-(4-{7-Cyclopropyl-5-[(1R)-1-methyl-1,2,3,4-tetrahydroisoquinoline-2-carbonyl]-pyrazolo[1,5-a]pyrimidin-2-yl}-3-fluorophenyl)pyrrolidin-3-yl]sulfonyl}acetamide] gave a CC50 at 3 days of 55.9 µM. For the same compound, the EC50 in series [2] was 0.052 µM.
In series [1], `CNS(=O)(=O)C1CCN(c2ccc(-c3cc4nc(C(=O)N5CCc6ccccc6[C@H]5C)cc(C5CC5)n4n3)c(F)c2)C1` (stereo partly drawn) [Compound 21, 1-(4-{7-Cyclopropyl-5-[(1R)-1-methyl-1,2,3,4-tetrahydroisoquinoline-2-carbonyl]-pyrazolo[1,5-a]pyrimidin-2-yl}-3-fluorophenyl)-N-methylpyrrolidine-3-sulfonamide] gave a CC50 at 3 days of over 100 µM. The EC50 in series [2] worked out at 0.045 µM.
Turning to `C[C@@H]1c2ccccc2CCN1C(=O)c1cc(C2CC2)n2nc(-c3ccc(N4CCC(S(=O)(=O)N(C)C)C4)cc3F)cc2n1` (stereo partly drawn) [Compound 22, 1-(4-{7-Cyclopropyl-5-[(1R)-1-methyl-1,2,3,4-tetrahydroisoquinoline-2-carbonyl]-pyrazolo[1,5-a]pyrimidin-2-yl}-3-fluorophenyl)-N,N-dimethylpyrrolidine-3-sulfonamide], the CC50 at 3 days in series [1] was over 100 µM. The EC50 in series [2] came to 0.145 µM.
The like results for `C[C@@H]1c2ccccc2CCN1C(=O)c1cc(C2CC2)n2nc(-c3ccc(N4CC[C@H](C(=O)N(C)C)C4)cc3F)cc2n1` [Compound 38, (3S)-1-(4-{7-Cyclopropyl-5-[(1R)-1-methyl-1,2,3,4-tetrahydroisoquinoline-2-carbonyl]-pyrazolo[1,5-a]pyrimidin-2-yl}-3-fluorophenyl)-N,N-dimethylpyrrolidine-3-carboxamide] were, in that order, over 100 µM and 0.043 µM.
`C[C@@H]1c2ccccc2CCN1C(=O)c1cc(C2CC2)n2nc(-c3ccc(N4CC[C@H](C(=O)NC#N)C4)cc3F)cc2n1` [Compound 39, (3S)—N-Cyano-1-(4-{7-cyclopropyl-5-[(1R)-1-methyl-1,2,3,4-tetrahydroisoquinoline-2-carbonyl]pyrazolo[1,5-a]pyrimidin-2-yl}-3-fluorophenyl)pyrrolidine-3-carboxamide] showed a CC50 at 3 days in series [1] of 53.1 µM. For the same compound, in series [2], the half-maximal effective concentration (EC50) is 0.291 µM.
The like results for `C[C@@H]1c2ccccc2CCN1C(=O)c1cc(C2CC2)n2nc(-c3ccc(N4CC[C@H](C(=O)NS(C)(=O)=O)C4)cc3F)cc2n1` [Compound 40, (3S)-1-(4-{7-Cyclopropyl-5-[(1R)-1-methyl-1,2,3,4-tetrahydroisoquinoline-2-carbonyl]-pyrazolo[1,5-a]pyrimidin-2-yl}-3-fluorophenyl)-N-methanesulfonylpyrrolidine-3-carboxamide] were, in that order, 52.3 µM and 0.061 µM.
The compound `CNC(=O)[C@H]1CCN(c2ccc(-c3cc4nc(C(=O)N5CCc6ccccc6[C@H]5C)cc(C5CC5)n4n3)c(F)n2)C1` [Compound 50, (3S)-1-(5-{7-Cyclopropyl-5-[(1R)-1-methyl-1,2,3,4-tetrahydroisoquinoline-2-carbonyl]-pyrazolo[1,5-a]pyrimidin-2-yl}-6-fluoropyridin-2-yl)-N-methylpyrrolidine-3-carboxamide] had a CC50 at 3 days in series [1] of 35.1 µM. Also, the EC50 in series [2] was found to be 0.031 µM.
`C[C@@H]1c2ccccc2CCN1C(=O)c1cc(C2CC2)n2nc(-c3ccc(N4CC[C@H](C(=O)NS(C)(=O)=O)C4)nc3F)cc2n1` [Compound 51, (3S)-1-(5-{7-Cyclopropyl-5-[(1R)-1-methyl-1,2,3,4-tetrahydroisoquinoline-2-carbonyl]-pyrazolo[1,5-a]pyrimidin-2-yl}-6-fluoropyridin-2-yl)-N-methanesulfonylpyrrolidine-3-carboxamide] returned a CC50 at 3 days in series [1] of 67.9 µM. Besides, the EC50 in series [2] amounted to 0.131 µM.
In series [1], `C[C@@H]1c2ccccc2CCN1C(=O)c1cc(-c2ccccc2)n2nc(-c3ccc(N4CC[C@H](C(N)=O)C4)cc3F)cc2n1` [Compound 56, (3S)-1-(3-Fluoro-4-{5-[(1R)-1-methyl-1,2,3,4-tetrahydroisoquinoline-2-carbonyl]-7-phenylpyrazolo[1,5-a]pyrimidin-2-yl}phenyl)pyrrolidine-3-carboxamide] came in with a CC50 at 3 days of 58.9 µM. In series [2], the EC50 came to 0.032 µM.
The matching figures for `Cc1ccc(-c2cc(C(=O)N3CCc4ccccc4[C@H]3C)nc3cc(-c4ccc(N5CC[C@H](C(N)=O)C5)cc4F)nn23)cc1` [Compound 58, (3S)-1-(3-Fluoro-4-{5-[(1R)-1-methyl-1,2,3,4-tetrahydroisoquinoline-2-carbonyl]-7-(4-methylphenyl)pyrazolo[1,5-a]pyrimidin-2-yl}phenyl)pyrrolidine-3-carboxamide]: over 100 µM and 0.036 µM.
The matching figures for `C[C@@H]1c2ccccc2CCN1C(=O)c1cc(-c2ccc(F)cc2)n2nc(-c3ccc(N4CC[C@H](C(N)=O)C4)cc3F)cc2n1` [Compound 60, (3S)-1-{3-Fluoro-4-[7-(4-fluorophenyl)-5-[(1R)-1-methyl-1,2,3,4-tetrahydroisoquinoline-2-carbonyl]pyrazolo[1,5-a]pyrimidin-2-yl]phenyl}pyrrolidine-3-carboxamide]: 41.3 µM and 0.029 µM.
On to `C[C@@H]1c2ccccc2CCN1C(=O)c1cc(-c2ccc(C(F)(F)F)cc2)n2nc(-c3ccc(N4CC[C@H](C(N)=O)C4)cc3F)cc2n1` [Compound 61, (3S)-1-(3-Fluoro-4-{5-[(1R)-1-methyl-1,2,3,4-tetrahydroisoquinoline-2-carbonyl]-7-[4-(trifluoromethyl)phenyl]pyrazolo[1,5-a]pyrimidin-2-yl}phenyl)pyrrolidine-3-carboxamide], for which the CC50 at 3 days in series [1] was over 100 µM. For the same compound, the EC50 in series [2] stood at 0.193 µM.
